Results from patent US20260217701A1, “SELECTIVE BET INHIBITORS AND USES THEREOF” (Tay Therapeutics Limited, priority 2022, published 2026).
Like-named read-outs stand apart in the source and are kept apart here. Blank lines part the entries; values can stand above or below the compound they belong to.

Legend:
BET BD2 = settings: public sources, not a head-to-head trial, cited from earlier work; for BD2: comparator BET inhibitors; for Selectivity (BD1/BD2): comparator
BRD4 BD2 = target: T1, BRD4 BD2 (Homo sapiens, UniProt O60885); experiment: NanoBRET bromodomain assay, NanoLuc-BRD4-BD2 in HEK293 cells; type: binding; settings: for Fold Selectivity BRD4 BD1/BD2: IC50 BD1/IC50 BD2, qualitative if an IC50 is at the upper limit
T1 construct: HEK293 cells were transfected using NanoLuc-BRD4-BD1 or NanoLuc-BRD4-BD2 fusion vectors
Procedure: (§1) Plates were then incubated at 37° C.+5% CO2 incubator for 2 hours.
(§2) Fold Selectivity Calculated (IC50 BD1/IC50 BD2).

BRD4 BD1 = target: T2, BRD4 BD1 (Homo sapiens, UniProt O60885); experiment: NanoBRET bromodomain assay, NanoLuc-BRD4-BD1 in HEK293 cells; type: binding
T2 construct: HEK293 cells were transfected using NanoLuc-BRD4-BD1 or NanoLuc-BRD4-BD2 fusion vectors
Procedure: Exemplary compounds of the disclosure are active against BRD4 BD2 and selective over BRD4 BD1. BRD4 is a representative example of the BET family, as the binding sites of all BET family members are structurally similar. […] IC50s and fold selectivity's are determined as described below and are represented in Table 1.
as §1, §2

[1] = test system: idiopathic pulmonary fibrosis (bleomycin); experiment: Bleomycin IPF model: lung histology, Masson's Trichrome with Ashcroft scoring; type: in vivo, C57BI/6J mice
Procedure: Animals were acclimated for two weeks prior to study initiation, and were randomized into the experimental groups outlined in Table 32. Intratracheal (IT) administration of Bleo or PBS control was conducted at the start of the study (Day 0). […] Following administration of Bleo, animals (n=10/group) were included in the study if they met the following guidelines on Day 7: […] A resection of the right lung was weighed and homogenized to determine total hydroxyproline levels by colorimetric assay, and the remaining lung lysate was saved for future analyses. For the morphological assessments, the left lung was inflation-fixed at 25 cm of water pressure with 4% paraformaldehyde in PBS for 1 minute, processed, and then sectioned. Morphological analysis of the lung was conducted using H&E-stained slides. Additional histologic stains for morphological analyses included Masson's Trichrome staining with Ashcroft scoring to determine severity of fibrosis.

[2] = test system: idiopathic pulmonary fibrosis (bleomycin); experiment: Bleomycin IPF model: functional lung volume by micro-CT; type: in vivo, C57BI/6J mice; parameters: Functional Lung Volume, Mean: unit not given here; settings: Day 21
Procedure: Animals were acclimated for two weeks prior to study initiation, and were randomized into the experimental groups outlined in Table 32. Intratracheal (IT) administration of Bleo or PBS control was conducted at the start of the study (Day 0). […] Following administration of Bleo, animals (n=10/group) were included in the study if they met the following guidelines on Day 7: […] Micro-CT imaging was also performed on Day 7 to determine relative fibrosis and on Day 21. […] Images were acquired with a respiratory gated technique with the following parameters: X-ray tube voltage: 90 KV; X-ray tube current: 88 μA; total scan time: 4 minutes. The system was calibrated monthly with standard phantoms for noise, uniformity, low contrast, and resolution to ensure consistency.

hydroxyproline = experiment: Bleomycin IPF model: hydroxyproline content in lung lysates; type: in vivo, C57BI/6J mice; parameters: Hydroxyproline Levels, Mean: unit not given here; settings: Bleo + Pirfenidone (300 mg/kg) OG QOD from D7
Procedure: (§3) Male C57BI/6J mice, aged 12 weeks with an approximate weight of 25-30 g were obtained from Jackson Laboratories (Bar Harbor, ME). Animals were acclimated for two weeks prior to study initiation, and were randomized into the experimental groups outlined in Table 32.
(§4) Intratracheal (IT) administration of Bleo or PBS control was conducted at the start of the study (Day 0). […] Animals were weighed on Day 0, and indexed boluses of PBS control (Group 1) or Bleo (Groups 2-6) were delivered by IT administration.
(§5) Following administration of Bleo, animals (n=10/group) were included in the study if they met the following guidelines on Day 7: (1) a predictable 5% loss in body weight, and (2) the presence of fibrotic pulmonary lesions, detected by micro-CT imaging. 10 animals from Group 1 additionally proceeded as controls. Animals that continued in the study on Day 7 received an oral gavage (OG) administration of PBS, Compound A (1 mg/kg, 3 mg/kg, 10 mg/kg), or Pirfenidone (300 mg/kg), as outlined in Table 31 in 25 μL boluses every other day (QOD), starting on Day 7. Compound A was formulated in 5% (v/v) DMSO/15% (v/v) PEG 400/80% (v/v) E-TPGS in purified water.
Animals were euthanized on Day 21 following Micro-CT imaging, and the right lung was collected for biochemical analysis, and the left lung was inflation-fixed for morphological assessments. A resection of the right lung was weighed and homogenized to determine total hydroxyproline levels by colorimetric assay, and the remaining lung lysate was saved for future analyses.

[3] = test system: idiopathic pulmonary fibrosis (bleomycin); experiment: Bleomycin IPF model: oxygen saturation (pulse oximetry); type: in vivo, C57BI/6J mice; settings: Bleo + Pirfenidone (300 mg/kg) OG QOD from D7
Procedure: as §3, §4, §5
Body weights were obtained at Day 0 at the start of the study, and again at Day 7 to determine if an animal continued in the study. Body weight was measured daily from Day 7 until Day 21, and oxygen saturation was measured by a pulse oximetry (MouseOx) system QOD from Day 7 until study completion on Day 21, and results were plotted and analyzed by Kaplan-Meier plots.

[4] = Bleomycin IPF model: body weight and mortality; type: in vivo, C57BI/6J mice; parameters: Mean Body Weight Change: unit not given here; settings: for Mean Body Weight Change: Bleo + Pirfenidone (300 mg/kg) OG QOD from D7
Procedure: as §3, §4
as §5, with “water. […]” for “water.”

[5] = Bleo + Pirfenidone (300 mg/kg) OG QOD from D7

Compound: CNc1nc(-c2nc3ccc(N4CCN(C)CC4)cc3n2Cc2ccccc2)cn2c(C)nnc12 [BI-894999]
BD2 (BET BD2): 41 nM
Selectivity (BD1/BD2) (BET BD2; nanoBRET assay): 0.1x

Compound: Cc1cc(-c2cc3c(-c4cc(=O)n(C)cc4-c4cccc(S(C)(=O)=O)c4)cn(C)c(=O)c3[nH]2)cc(C)n1 [Example 89]
IC50 (BRD4 BD2): 50 to 200 nM
Fold Selectivity BRD4 BD1/BD2 (BRD4 BD2): xx (Fold >50 and ≤200)
IC50 (BRD4 BD1): > 1000 nM

Compound: Cn1cc(-c2ccccc2)c(-c2cn(C)c(=O)c3[nH]c(-c4cccc(F)c4F)cc23)cc1=O [Example 90]
IC50 (BRD4 BD2): 10 to 50 nM
Fold Selectivity BRD4 BD1/BD2 (BRD4 BD2): xxx (Fold >200 and ≤1000)
IC50 (BRD4 BD1): > 1000 nM

Compound: Cc1nn(C2COC2)cc1-c1cc2c(-c3cc(=O)n(C)cc3-c3ccccc3)cn(C)c(=O)c2[nH]1 [Example 91]
IC50 (BRD4 BD2): 10 to 50 nM
Fold Selectivity BRD4 BD1/BD2 (BRD4 BD2): xx (Fold >50 and ≤200)
IC50 (BRD4 BD1): > 1000 nM

Compound: Cc1cccc(C)c1Oc1cn(C)c(=O)cc1-c1cn(C)c(=O)c2[nH]c(-c3cc(CO)ccc3F)cc12 [Example 92]
IC50 (BRD4 BD2): 10 to 50 nM
Fold Selectivity BRD4 BD1/BD2 (BRD4 BD2): xxx (Fold >200 and ≤1000)
IC50 (BRD4 BD1): > 1000 nM

Compound: Cc1sc2c(c1C)C(c1ccc(Cl)cc1)=N[C@@H](CC(=O)Nc1ccc(O)cc1)c1nnc(C)n1-2 [MK-8628/OTX-015]
BD2 (BET BD2): 26 nM
Selectivity (BD1/BD2) (BET BD2; nanoBRET assay): 1.5x

Compound: Cc1noc2c1-c1ccccc1C(c1ccc(Cl)cc1)=N[C@H]2CC(N)=O [Pelabresib]
Selectivity (BD1/BD2) (BET BD2; FRET): 5x (FRET)
BD2 (BET BD2): 17 nM

Compound: Cc1ccc(=O)n(-c2ccccc2)c1 [Pirfenidone, reference compound]
Ashcroft Scoring, Max [1, 5]: 6
Ashcroft Scoring, Mean [1, 5]: 5.125
Ashcroft Scoring, Min [1, 5]: 4
Ashcroft scores relative to IPF control group ([1]; Day 21, Group 6, 300 mg/kg): significantly reduced Ashcroft scores
Fibrosis in lung tissue (Masson's Trichrome) compared to Group 2 (Bleo+Saline) ([1]; Group 5 (Compound A 10) and Group 6 (Pirfenidone)): qualitatively diminished
Functional Lung Volume, Mean [2, 5]: 445.7025
Functional lung volume relative to Group 2 ([2]; Group 6, Pirfenidone 300 mg/kg): significantly increased
Hydroxyproline Levels, Mean (hydroxyproline): 0.055
Mean Oxygen Saturation ([3]; Day 7): 81.08
Mean Oxygen Saturation ([3]; Day 9): 84.55
Mean Oxygen Saturation ([3]; Day 11): 83.32
Mean Oxygen Saturation ([3]; Day 13): 84.28
Mean Oxygen Saturation ([3]; Day 15): 87.03
Mean Oxygen Saturation ([3]; Day 17): 87.08
Mean Oxygen Saturation ([3]; Day 19): 89.13
Mean Oxygen Saturation ([3]; Day 21): 89.18
Mean Body Weight Change ([4]; Day 1): 2.308
Mean Body Weight Change ([4]; Day 2): −0.484
Mean Body Weight Change ([4]; Day 3): 0.051
Mean Body Weight Change ([4]; Day 4): 4.604
Mean Body Weight Change ([4]; Day 5): −5.992
Mean Body Weight Change ([4]; Day 6): −9.221
Mean Body Weight Change ([4]; Day 7): −11.372
Mean Body Weight Change ([4]; Day 8): −14.446
Mean Body Weight Change ([4]; Day 9): −14.694
Mean Body Weight Change ([4]; Day 10): −15.574
Mean Body Weight Change ([4]; Day 11): −14.209
Mean Body Weight Change ([4]; Day 12): −13.437
Mean Body Weight Change ([4]; Day 13): −12.258
Mean Body Weight Change ([4]; Day 14): −12.644
Mean Body Weight Change ([4]; Day 15): −13.627
Mean Body Weight Change ([4]; Day 16): −13.391
Mean Body Weight Change ([4]; Day 17): −13.251
Mean Body Weight Change ([4]; Day 18): −15.138
Mean Body Weight Change ([4]; Day 19): −14.921
Mean Body Weight Change ([4]; Day 20): −15.674
Mean Body Weight Change ([4]; Day 21): −15.557
Body weight compared with Bleo+Saline treated animals ([4]; Compound A (all doses tested), Pirfenidone (300 mg/kg)): No significant difference

Compound: NUV-868
Selectivity (BD1/BD2) (BET BD2; FRET): 1,460x (FRET)
BD2 (BET BD2): 2 nM

Other lines, results leading:

IC50 (BRD4 BD2): 50 to 200 nM
Fold Selectivity BRD4 BD1/BD2 (BRD4 BD2): xx (Fold >50 and ≤200)
IC50 (BRD4 BD1): > 1000 nM
Compound: Cc1cccc(C)c1Oc1cn(C)c(=O)cc1-c1cn(C)c(=O)c2[nH]c(-c3ccc(F)c(F)c3F)cc12 [Example 93]

IC50 (BRD4 BD2): 10 to 50 nM
Fold Selectivity BRD4 BD1/BD2 (BRD4 BD2): xxx (Fold >200 and ≤1000)
IC50 (BRD4 BD1): > 1000 nM
Compound: Cc1cccc(C)c1Oc1cn(C2CC2)c(=O)cc1-c1cn(C)c(=O)c2[nH]c(-c3cn(C)nc3C)cc12 [Example 94]

IC50 (BRD4 BD2): 50 to 200 nM
Fold Selectivity BRD4 BD1/BD2 (BRD4 BD2): xx (Fold >50 and ≤200)
IC50 (BRD4 BD1): > 1000 nM
Compound: Cc1cccc(C)c1Oc1cn(C)c(=O)cc1-c1cn(C)c(=O)c2[nH]c(-c3cccc(C(F)F)c3F)cc12 [Example 95]

IC50 (BRD4 BD2): 10 to 50 nM
Fold Selectivity BRD4 BD1/BD2 (BRD4 BD2): x (Fold >2 and ≤50)
IC50 (BRD4 BD1): 500 to 1000 nM
Compound: Cc1cccc(C)c1Oc1cn(C)c(=O)cc1-c1cn(C)c(=O)c2[nH]c(-c3cnn(CC#N)c3)cc12 [Example 96]

IC50 (BRD4 BD2): 10 to 50 nM
Fold Selectivity BRD4 BD1/BD2 (BRD4 BD2): xxx (Fold >200 and ≤1000)
IC50 (BRD4 BD1): > 1000 nM
Compound: Cc1cccc(C)c1Oc1cn(C)c(=O)cc1-c1cn(C)c(=O)c2[nH]c(-c3ccc(OC(F)F)cc3F)cc12 [Example 97]

IC50 (BRD4 BD2): 50 to 200 nM
Fold Selectivity BRD4 BD1/BD2 (BRD4 BD2): xx (Fold >50 and ≤200)
IC50 (BRD4 BD1): > 1000 nM
Compound: Cc1cccc(C)c1Oc1cn(C)c(=O)cc1-c1cn(C)c(=O)c2[nH]c(-c3cccc(C(F)(F)F)c3F)cc12 [Example 98]

IC50 (BRD4 BD2): 10 to 50 nM
Fold Selectivity BRD4 BD1/BD2 (BRD4 BD2): xxx (Fold >200 and ≤1000)
IC50 (BRD4 BD1): > 1000 nM
Compound: Cc1cccc(-c2cc3c(-c4cc(=O)n(C)cc4Oc4c(C)cccc4C)cn(C)c(=O)c3[nH]2)c1F [Example 99]
